Data reported in ChEMBL document CHEMBL3608278 (J Med Chem, 2015).

Experiments:
[1] = molecular target: T1, Potassium voltage-gated channel subfamily A member 3 (Homo sapiens, UniProt P22001); experiment: cell-based; parameters: species or system Blood
[2] = molecular target: T1, Potassium voltage-gated channel subfamily A member 3; parameters: species or system Blood

T1 sequence (P22001 whole entry): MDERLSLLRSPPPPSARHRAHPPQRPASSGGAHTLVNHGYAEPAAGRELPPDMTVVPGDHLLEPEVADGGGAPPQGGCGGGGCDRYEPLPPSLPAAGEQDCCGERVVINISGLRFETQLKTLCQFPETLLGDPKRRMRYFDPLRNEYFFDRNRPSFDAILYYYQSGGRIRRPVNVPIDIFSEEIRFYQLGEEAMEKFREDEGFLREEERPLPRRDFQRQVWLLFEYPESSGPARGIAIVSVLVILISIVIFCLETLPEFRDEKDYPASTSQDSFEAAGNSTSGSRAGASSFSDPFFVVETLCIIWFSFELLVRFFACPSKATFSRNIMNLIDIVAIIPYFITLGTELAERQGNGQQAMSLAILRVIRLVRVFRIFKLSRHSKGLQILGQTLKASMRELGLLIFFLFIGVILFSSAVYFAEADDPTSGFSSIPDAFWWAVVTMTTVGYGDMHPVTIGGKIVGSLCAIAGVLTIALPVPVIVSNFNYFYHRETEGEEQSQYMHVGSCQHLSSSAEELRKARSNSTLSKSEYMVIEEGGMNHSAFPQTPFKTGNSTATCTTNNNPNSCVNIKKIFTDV

SMILES | IC50 [1] [pM] | IC50 [2] [pM]
CC[C@H](C)[C@@H]1NC(=O)[C@@H](NC(=O)[C@H](CO)NC(=O)[C@@H](N)CCCNC(=N)N)CSSC[C@@H](C(=O)O)NC(=O)[C@H]([C@@H](C)O)NC(=O)CNC(=O)[C@@H]2CSSC[C@@H]3NC(=O)[C@H](CCC(N)=O)NC(=O)[C@H](Cc4ccccc4)NC(=O)[C@H](C)NC(=O)[C@H]([C@@H](C)O)NC(=O)[C@H](CSSC[C@H](NC(=O)[C@H](Cc4ccccc4)NC(=O)[C@H](CO)NC(=O)[C@H](CC(C)C)NC(=O)[C@H](CCCNC(=N)N)NC(=O)[C@H](Cc4ccc(O)cc4)NC(=O)[C@H](CCCCN)NC(=O)[C@H](CCSC)NC(=O)[C@H](CO)NC(=O)[C@H](Cc4cnc[nH]4)NC(=O)[C@H](Cc4cccc5ccccc45)NC3=O)C(=O)N[C@@H](CCCNC(=N)N)C(=O)N[C@@H](CCCCN)C(=O)N[C@@H]([C@@H](C)O)C(=O)N2)NC(=O)[C@H](CCCNC(=N)N)NC(=O)[C@H](CO)NC(=O)[C@H](CCCCN)NC(=O)[C@@H]2CCCN2C(=O)[C@H]([C@@H](C)CC)NC(=O)[C@H]([C@@H](C)O)NC(=O)[C@H](CC(=O)O)NC1=O | 419 | 375
CC[C@H](C)[C@@H]1NC(=O)[C@@H](NC(=O)[C@H](CO)NC(=O)[C@@H](N)CCCNC(=N)N)CSSC[C@@H](C(=O)O)NC(=O)[C@H]([C@@H](C)O)NC(=O)CNC(=O)[C@@H]2CSSC[C@@H]3NC(=O)[C@H](CCC(N)=O)NC(=O)[C@H](Cc4ccccc4)NC(=O)[C@H](C)NC(=O)[C@H]([C@@H](C)O)NC(=O)[C@H](CSSC[C@H](NC(=O)[C@H](Cc4ccccc4)NC(=O)[C@H](CCC(=O)O)NC(=O)[C@H](CC(C)C)NC(=O)[C@H](CCCNC(=N)N)NC(=O)[C@H](Cc4ccc(O)cc4)NC(=O)[C@H](CCCCN)NC(=O)[C@H](CCSC)NC(=O)[C@H](CO)NC(=O)[C@H](Cc4cnc[nH]4)NC(=O)[C@H](CCCCN)NC3=O)C(=O)N[C@@H](CCCNC(=N)N)C(=O)N[C@@H](CCCCN)C(=O)N[C@@H]([C@@H](C)O)C(=O)N2)NC(=O)[C@H](CCCNC(=N)N)NC(=O)[C@H](CO)NC(=O)[C@H](CCCCN)NC(=O)[C@@H]2CCCN2C(=O)[C@H]([C@@H](C)CC)NC(=O)[C@H]([C@@H](C)O)NC(=O)[C@H](CC(=O)O)NC1=O | 202 | 400
CC[C@H](C)[C@@H]1NC(=O)[C@@H](NC(=O)[C@H](CO)NC(=O)[C@@H](N)CCCNC(=N)N)CSSC[C@@H](C(=O)O)NC(=O)[C@H]([C@@H](C)O)NC(=O)CNC(=O)[C@@H]2CSSC[C@@H]3NC(=O)[C@H](CCC(N)=O)NC(=O)[C@H](Cc4ccccc4)NC(=O)[C@H](C)NC(=O)[C@H]([C@@H](C)O)NC(=O)[C@H](CSSC[C@H](NC(=O)[C@H](Cc4ccccc4)NC(=O)[C@H](CO)NC(=O)[C@H](CC(C)C)NC(=O)[C@H](CCCNC(=N)N)NC(=O)[C@H](Cc4ccc(O)cc4)NC(=O)[C@H](CCCCN)NC(=O)[C@H](CCSC)NC(=O)[C@H](CO)NC(=O)[C@H](Cc4cnc[nH]4)NC(=O)[C@H](CCCCN)NC3=O)C(=O)N[C@@H](CCC(=O)O)C(=O)N[C@@H](CCCCN)C(=O)N[C@@H]([C@@H](C)O)C(=O)N2)NC(=O)[C@H](CCCNC(=N)N)NC(=O)[C@H](CO)NC(=O)[C@H](CCCCN)NC(=O)[C@@H]2CCCN2C(=O)[C@H]([C@@H](C)CC)NC(=O)[C@H]([C@@H](C)O)NC(=O)[C@H](CC(=O)O)NC1=O | 730 | 1960
CC[C@H](C)[C@@H]1NC(=O)[C@@H](NC(=O)[C@H](CCCNC(=N)N)NC(=O)[C@@H](N)CCCNC(=N)N)CSSC[C@@H](C(=O)O)NC(=O)[C@H]([C@@H](C)O)NC(=O)CNC(=O)[C@@H]2CSSC[C@@H]3NC(=O)[C@H](CCC(N)=O)NC(=O)[C@H](Cc4ccccc4)NC(=O)[C@H](C)NC(=O)[C@H]([C@@H](C)O)NC(=O)[C@H](CSSC[C@H](NC(=O)[C@H](Cc4ccccc4)NC(=O)[C@H](CO)NC(=O)[C@H](CC(C)C)NC(=O)[C@H](CCCNC(=N)N)NC(=O)[C@H](Cc4ccc(O)cc4)NC(=O)[C@H](CCCCN)NC(=O)[C@H](CCSC)NC(=O)[C@H](CO)NC(=O)[C@H](Cc4cnc[nH]4)NC(=O)[C@H](CCCCN)NC3=O)C(=O)N[C@@H](CCCNC(=N)N)C(=O)N[C@@H](CCCCN)C(=O)N[C@@H]([C@@H](C)O)C(=O)N2)NC(=O)[C@H](CCCNC(=N)N)NC(=O)[C@H](CO)NC(=O)[C@H](CCCCN)NC(=O)[C@@H]2CCCN2C(=O)[C@H]([C@@H](C)CC)NC(=O)[C@H]([C@@H](C)O)NC(=O)[C@H](CC(=O)O)NC1=O | 87 | 116
CC[C@H](C)[C@@H]1NC(=O)[C@@H](NC(=O)[C@H](CO)NC(=O)[C@@H](N)CCCNC(=N)N)CSSC[C@@H](C(=O)O)NC(=O)[C@H]([C@@H](C)O)NC(=O)CNC(=O)[C@@H]2CSSC[C@@H]3NC(=O)[C@H](CCC(N)=O)NC(=O)[C@H](Cc4ccccc4)NC(=O)[C@H](C)NC(=O)[C@H]([C@@H](C)O)NC(=O)[C@H](CSSC[C@H](NC(=O)[C@H](Cc4ccccc4)NC(=O)[C@H](CO)NC(=O)[C@H](CC(C)C)NC(=O)[C@H](CCCNC(=N)N)NC(=O)[C@H](Cc4ccc(O)cc4)NC(=O)[C@H](CCCCN)NC(=O)[C@H](CCSC)NC(=O)[C@H](CO)NC(=O)[C@H](Cc4cnc[nH]4)NC(=O)[C@H](CCCCN)NC3=O)C(=O)N[C@@H](CCCNC(=N)N)C(=O)N[C@@H](CCCCN)C(=O)N[C@@H]([C@@H](C)O)C(=O)N2)NC(=O)[C@H](Cc2cccc3ccccc23)NC(=O)[C@H](CO)NC(=O)[C@H](CCCCN)NC(=O)[C@@H]2CCCN2C(=O)[C@H]([C@@H](C)CC)NC(=O)[C@H]([C@@H](C)O)NC(=O)[C@H](CC(=O)O)NC1=O | 1140 | 1650
CC[C@H](C)[C@@H]1NC(=O)[C@@H](NC(=O)[C@H](CO)NC(=O)[C@@H](N)CCCNC(=N)N)CSSC[C@@H](C(=O)O)NC(=O)[C@H]([C@@H](C)O)NC(=O)CNC(=O)[C@@H]2CSSC[C@@H]3NC(=O)[C@H](CCC(N)=O)NC(=O)[C@H](Cc4ccccc4)NC(=O)[C@H](C)NC(=O)[C@H]([C@@H](C)O)NC(=O)[C@H](CSSC[C@H](NC(=O)[C@H](Cc4ccccc4)NC(=O)[C@H](CO)NC(=O)[C@H](CC(C)C)NC(=O)[C@H](CCCNC(=N)N)NC(=O)[C@H](Cc4ccc(O)cc4)NC(=O)[C@H](CCCCN)NC(=O)[C@H](CCSC)NC(=O)[C@H](CO)NC(=O)[C@H](Cc4cccc5ccccc45)NC(=O)[C@H](CCCCN)NC3=O)C(=O)N[C@@H](CCCNC(=N)N)C(=O)N[C@@H](CCCCN)C(=O)N[C@@H]([C@@H](C)O)C(=O)N2)NC(=O)[C@H](CCCNC(=N)N)NC(=O)[C@H](CO)NC(=O)[C@H](CCCCN)NC(=O)[C@@H]2CCCN2C(=O)[C@H]([C@@H](C)CC)NC(=O)[C@H]([C@@H](C)O)NC(=O)[C@H](CC(=O)O)NC1=O | 153 | 255
CC[C@H](C)[C@@H]1NC(=O)[C@@H](NC(=O)[C@H](CO)NC(=O)[C@@H](N)CCCNC(=N)N)CSSC[C@@H](C(=O)O)NC(=O)[C@H]([C@@H](C)O)NC(=O)CNC(=O)[C@@H]2CSSC[C@@H]3NC(=O)[C@H](CCC(N)=O)NC(=O)[C@H](Cc4ccccc4)NC(=O)[C@H](C)NC(=O)[C@H]([C@@H](C)O)NC(=O)[C@H](CSSC[C@H](NC(=O)[C@H](Cc4ccccc4)NC(=O)[C@H](CO)NC(=O)[C@H](CC(C)C)NC(=O)[C@H](CCCNC(=N)N)NC(=O)[C@H](Cc4ccc(O)cc4)NC(=O)[C@H](CCCCN)NC(=O)[C@H](CCSC)NC(=O)[C@H](CO)NC(=O)[C@H](Cc4cnc[nH]4)NC(=O)[C@H](CCCCN)NC3=O)C(=O)N[C@@H](CCCNC(=N)N)C(=O)N[C@@H](Cc3cccc4ccccc34)C(=O)N[C@@H]([C@@H](C)O)C(=O)N2)NC(=O)[C@H](CCCNC(=N)N)NC(=O)[C@H](CO)NC(=O)[C@H](CCCCN)NC(=O)[C@@H]2CCCN2C(=O)[C@H]([C@@H](C)CC)NC(=O)[C@H]([C@@H](C)O)NC(=O)[C@H](CC(=O)O)NC1=O | 82 | 148
CC[C@H](C)[C@@H]1NC(=O)[C@@H](NC(=O)[C@H](CO)NC(=O)[C@@H](N)CCCNC(=N)N)CSSC[C@@H](C(=O)O)NC(=O)[C@H]([C@@H](C)O)NC(=O)CNC(=O)[C@@H]2CSSC[C@@H]3NC(=O)[C@H](CCC(N)=O)NC(=O)[C@H](Cc4ccccc4)NC(=O)[C@H](C)NC(=O)[C@H]([C@@H](C)O)NC(=O)[C@H](CSSC[C@H](NC(=O)[C@H](Cc4ccccc4)NC(=O)[C@H](CO)NC(=O)[C@H](CC(C)C)NC(=O)[C@H](CCCNC(=N)N)NC(=O)[C@H](Cc4ccc(O)cc4)NC(=O)[C@H](CCCCN)NC(=O)[C@H](CCSC)NC(=O)[C@H](CO)NC(=O)[C@H](Cc4c[nH]cn4)NC(=O)[C@H](CCCCN)NC3=O)C(=O)N[C@@H](CCCNC(=N)N)C(=O)N[C@@H](CCCCN)C(=O)N[C@@H]([C@@H](C)O)C(=O)N2)NC(=O)[C@H](CCCNC(=N)N)NC(=O)[C@H](CO)NC(=O)[C@H](CCCCN)NC(=O)[C@@H]2CCCN2C(=O)[C@H]([C@@H](C)CC)NC(=O)[C@H](CCC(=O)O)NC(=O)[C@H](CC(=O)O)NC1=O | 74 | 109
CC[C@H](C)[C@@H]1NC(=O)[C@@H](NC(=O)[C@H](CO)NC(=O)[C@@H](N)CCCNC(=N)N)CSSC[C@@H](C(=O)O)NC(=O)[C@H]([C@@H](C)O)NC(=O)CNC(=O)[C@@H]2CSSC[C@@H]3NC(=O)[C@H](CCC(N)=O)NC(=O)[C@H](Cc4ccccc4)NC(=O)[C@H](C)NC(=O)[C@H]([C@@H](C)O)NC(=O)[C@H](CSSC[C@H](NC(=O)[C@H](Cc4ccccc4)NC(=O)[C@H](CO)NC(=O)[C@H](CC(C)C)NC(=O)[C@H](CCCNC(=N)N)NC(=O)[C@H](Cc4ccc(O)cc4)NC(=O)[C@H](CCCCN)NC(=O)[C@H](CCSC)NC(=O)[C@H](CO)NC(=O)[C@H](Cc4cnc[nH]4)NC(=O)[C@H](CCCCN)NC3=O)C(=O)N[C@@H](CCCNC(=N)N)C(=O)N[C@@H](CCCCN)C(=O)N[C@@H]([C@@H](C)O)C(=O)N2)NC(=O)[C@H](CCCNC(=N)N)NC(=O)[C@H](CCC(=O)O)NC(=O)[C@H](CCCCN)NC(=O)[C@@H]2CCCN2C(=O)[C@H]([C@@H](C)CC)NC(=O)[C@H]([C@@H](C)O)NC(=O)[C@H](CC(=O)O)NC1=O | 23 | 55
